What was measured:
[1] = tested on: influenza virus A/Taiwan/1/86 (H1N1); test: organism not typed; format: cell-based; settings: MDCK, 72 h, CPE in MDCK cells, three days post-virus exposure, ATPlite
in vitro = settings: dog, TOX MDCK CC50

| Compound | IC50 [1] [nM] | melting point [°C] | CC50 at 3 days (in vitro) [µM] |
| --- | --- | --- | --- |
| Cn1cnc(C(=O)N[C@@H]2CCC[C@H](Nc3nc(-c4c[nH]c5c(F)cc(Cl)cc45)ncc3F)C2)n1 [Compound 70] | 4 | 291.9 | 9.1 |
| Cc1c[nH]c(C(=O)N[C@@H]2CCC[C@H](Nc3nc(-c4c[nH]c5c(F)cc(Cl)cc45)ncc3F)C2)n1 [Compound 71] | 2 | 276.8 | 3.4 |
| CCn1ccnc1C(=O)N[C@@H]1CCC[C@H](Nc2nc(-c3c[nH]c4c(F)cc(Cl)cc34)ncc2F)C1 [Compound 72] | 3 | 156.4 | 2.8 |
| Cc1cn(C)nc1C(=O)N[C@@H]1CCC[C@H](Nc2nc(-c3c[nH]c4c(F)cc(Cl)cc34)ncc2F)C1 [Compound 73] | 9 | 248.4 | > 25 |
| Cn1nnc(C(=O)N[C@@H]2CCC[C@H](Nc3nc(-c4c[nH]c5c(F)cc(Cl)cc45)ncc3F)C2)n1 [Compound 74] | 19 | 259.7 | > 25 |
| Cn1ncnc1C(=O)N[C@@H]1CCC[C@H](Nc2nc(-c3c[nH]c4c(F)cc(Cl)cc34)ncc2F)C1 [Compound 75] | 12 | > 300 | > 25 |
| Nc1nc(C(=O)N[C@@H]2CCC[C@H](Nc3nc(-c4c[nH]c5c(F)cc(Cl)cc45)ncc3F)C2)cs1 [Compound 76] | 0.6 | 184.8 | 2.5 |
| Nc1n[nH]cc1C(=O)N[C@@H]1CCC[C@H](Nc2nc(-c3c[nH]c4c(F)cc(Cl)cc34)ncc2F)C1 [Compound 77] | 3 | 133 | 9.9 |
| Cn1ncc(N)c1C(=O)N[C@@H]1CCC[C@H](Nc2nc(-c3c[nH]c4c(F)cc(Cl)cc34)ncc2F)C1 [Compound 79] | 38 | 166.4 | > 25 |
| Cn1nc(C(=O)N[C@@H]2CCC[C@H](Nc3nc(-c4c[nH]c5c(F)cc(Cl)cc45)ncc3F)C2)cc1N [Compound 80] | 4 | 174.8 | 3.9 |
| O=C(N[C@@H]1CCC[C@H](Nc2nc(-c3c[nH]c4c(F)cc(Cl)cc34)ncc2F)C1)c1nnn[nH]1 [Compound 81] | 39 | 275.1 | > 25 |
| Cn1ccnc1C(=O)N[C@H]1CCC[C@@H](Nc2nc(-c3c[nH]c4c(F)cc(F)cc34)ncc2F)C1 [Compound 83] | 2 | 166.6 | 9.6 |
| O=C(N[C@H]1CCC[C@@H](Nc2nc(-c3c[nH]c4c(F)cc(F)cc34)ncc2F)C1)c1cncs1 [Compound 84] | 3 | 295.2 | > 25 |
| COc1cccc(C(=O)N[C@@H]2CCC[C@H](Nc3nc(-c4c[nH]c5c(F)cc(F)cc45)ncc3F)C2)n1 [Compound 98] | 43 | 240 | 14.7 |
| O=C(N[C@@H]1CCC[C@H](Nc2nc(-c3c[nH]c4c(F)cc(F)cc34)ncc2F)C1)c1cc(Cl)ccn1 [Compound 99] | 12 | 86 | 10.2 |
| O=C(N[C@@H]1CCC[C@H](Nc2nc(-c3c[nH]c4c(F)cc(F)cc34)ncc2F)C1)c1ccc2ncccc2n1 [Compound 100] | 54 | 84.6 | 12.4 |
| Cc1cccnc1C(=O)N[C@@H]1CCC[C@H](Nc2nc(-c3c[nH]c4c(F)cc(F)cc34)ncc2F)C1 [Compound 101] | 10 | 236 | > 20.7 |

| Compound | IC50 [1] [nM] | melting point [°C] | CC50 at 3 days (in vitro) [µM] |
| --- | --- | --- | --- |
| O=C(N[C@@H]1CCC[C@H](Nc2nc(-c3c[nH]c4c(F)cc(F)cc34)ncc2F)C1)c1ncccc1O [Compound 102] | 10 | 176 | 10.1 |
| Cc1cnc(C(=O)N[C@@H]2CCC[C@H](Nc3nc(-c4c[nH]c5c(F)cc(F)cc45)ncc3F)C2)cn1 [Compound 103] | 49 | 215 | 6.6 |
| O=C(N[C@@H]1CCC[C@H](Nc2nc(-c3c[nH]c4c(F)cc(F)cc34)ncc2F)C1)c1cccc(O)n1 [Compound 104] | 2 | 226.6 | > 25 |
| COc1ccnc(C(=O)N[C@@H]2CCC[C@H](Nc3nc(-c4c[nH]c5c(F)cc(F)cc45)ncc3F)C2)c1 [Compound 105] | 2 | 233.8 | 5.6 |
| Nc1cccc(C(=O)N[C@@H]2CCC[C@H](Nc3nc(-c4c[nH]c5c(F)cc(F)cc45)ncc3F)C2)n1 [Compound 106] | 5 | 190 | 10.3 |
| O=C(N[C@@H]1CCC[C@H](Nc2nc(-c3c[nH]c4c(F)cc(F)cc34)ncc2F)C1)c1cnccn1 [Compound 107] | 45 | 269 | > 25 |
| O=C(N[C@@H]1CCC[C@H](Nc2nc(-c3c[nH]c4c(F)cc(F)cc34)ncc2F)C1)c1ncccn1 [Compound 108] | 6 | > 300 | > 24 |
| O=C(N[C@@H]1CCC[C@H](Nc2nc(-c3c[nH]c4c(F)cc(F)cc34)ncc2F)C1)c1nccs1 [Compound 109] | 2 | 277 | 6.1 |
| Cc1ccnc(C(=O)N[C@@H]2CCC[C@H](Nc3nc(-c4c[nH]c5c(F)cc(F)cc45)ncc3F)C2)c1 [Compound 110] | 3 | 255 | 9.6 |
| O=C(N[C@@H]1CCC[C@H](Nc2nc(-c3c[nH]c4c(F)cc(F)cc34)ncc2F)C1)c1c[nH]nn1 [Compound 111] | 0.6 | 265 | 9 |
| Cc1cc(C(=O)N[C@@H]2CCC[C@H](Nc3nc(-c4c[nH]c5c(F)cc(F)cc45)ncc3F)C2)n[nH]1 [Compound 112] | 3 | 283 | 18 |
| Cc1ncn(C)c1C(=O)N[C@@H]1CCC[C@H](Nc2nc(-c3c[nH]c4c(F)cc(F)cc34)ncc2F)C1 [Compound 113] | 39 | > 300 | > 25 |
| O=C(N[C@@H]1CCC[C@H](Nc2nc(-c3c[nH]c4c(F)cc(F)cc34)ncc2F)C1)c1ncn[nH]1 [Compound 114] | 430 | 289.8 | > 25 |
| CCn1nccc1C(=O)N[C@@H]1CCC[C@H](Nc2nc(-c3c[nH]c4c(F)cc(F)cc34)ncc2F)C1 [Compound 115] | 380 | 266.8 | > 25 |
| Cc1cc(C(=O)N[C@@H]2CCC[C@H](Nc3nc(-c4c[nH]c5c(F)cc(F)cc45)ncc3F)C2)n(C)n1 [Compound 116] | 12 | 279 | 5.8 |
| Cc1c(C(=O)N[C@@H]2CCC[C@H](Nc3nc(-c4c[nH]c5c(F)cc(F)cc45)ncc3F)C2)nnn1C [Compound 117] | 11 | 202 | 8.7 |
| Cc1nc(C(=O)N[C@@H]2CCC[C@H](Nc3nc(-c4c[nH]c5c(F)cc(F)cc45)ncc3F)C2)no1 [Compound 118] | 43 | 233 | > 25 |
